Blank lines part the entries; values can stand above or below the compound they belong to.
Columns and labels:
[1] = Total and free plasma tiopronin and urinary tiopronin recovery in Beagle dogs after oral dosing by four regimens (Example 4); assay type: in vivo; details: for % of the dose (unchanged drug) found in urine / maximum plasma concentrations of free tiopronin / maximum plasma concentrations of total tiopronin: average, n=3 dogs; for free (unbound) tiopronin in plasma over time: FIG. 12
Experimental: (§1) The objective of this study was to evaluate total and free plasma tiopronin, and total urinary tiopronin, in an animal model (male Beagle dogs) following oral administration of tiopronin, according to various dose regimens, to determine whether different regimens, simulating modified release, would improve drug pharmacokinetics. Specifically, tiopronin formulations were administered to deliver 30 mg/kg per dog via single or multiple doses divided over a 12-hour period; and blood and urine samples then collected at different times post-dose.
Tiopronin formulations were administered to provide 30 mg/kg per dog according to four different dosage regimes (Leg 1, Leg 2, Leg 3, and Leg 4), as set forth in the table below. Leg 2, Leg 3, and Leg 4 (also referred to as Q6H, Q3H, and Q2H respectively) were designed to simulate modified-release formulations, in accordance with certain embodiments of the present invention. Following administration, blood and urine samples were collected at the time points, or over the time intervals, also as indicated below.
Preparation of Dosing Formulations: Capsules for Legs 1-4 were prepared and filled on the day of dosing, as follows. For Legs 1 and 2, tiopronin was dry mixed with avicel and mannitol to make a 40:30:30 mixture of tiopronin to avicel to mannitol, respectively; for study Legs 3 and 4, a 20:40:40 mixture of tiopronin to avicel to mannitol, respectively, was prepared. The dry mixes were custom filled with the appropriate amount of powder to deliver the specified doses to each dog based, on their respective body weights.
(§2) Animal Dosing and Sample Collection: This non-clinical study followed established practices and standard operating procedures of Absorption Systems and Absorption Systems Inc., as well as the study protocol. Study groups each included three dogs. The dogs were housed one per cage. The dogs were fasted for at least six hours prior to each administration of the formulation. Food was given approximately ten hours post initial dosing. Animals had free access to water throughout the study.
Following dosing, blood and urine samples were collected according to the schedule in Table 1.
Blood samples were collected via direct venipuncture of the jugular vein or other accessible vein of the dog, and placed in chilled polypropylene tubes containing sodium heparin as an anticoagulant. Samples were maintained chilled throughout processing. Blood samples were centrifuged at 4° C. and 3,000 rpm (revolutions per minute) for 5 minutes. The first aliquot of plasma was precipitated with methanol by combining 200 μL of plasma with 600 μL of methanol in a centrifuge tube. The samples were mixed, centrifuged at 3,000 rpm for 5 minutes. The resulting supernatant was decanted into clean, labeled polypropylene tubes. The remaining plasma volume was transferred to a chilled, labeled polypropylene tube, placed on dry ice, and stored in a freezer maintained at −60° C. to −80° C. Following taking each blood sample, 15 mL of water was given to the dog via syringe.
For study Leg 1, pre-dose urine samples were collected via free catch approximately 2 hours pre-dose. For study Legs 2, 3 and 4, pre-dose urine samples were collected via catheter approximately 2 hours pre-dose. Other urine samples were collected via free catch in the cages during the indicated interval, collected into clean bottles, and kept on cold packs. Cold packs were replenished as needed during the day. At the end of each interval, the total volume of urine was collected and recorded. Each sample was well mixed and divided into two aliquots: an approximately 5 mL first aliquot, and a second aliquot of the remaining volume. Additionally, for Leg 4 only, each dog received a 60 mL subcutaneous injection of saline (2×30 mL injections at two different sites) approximately 30 minutes prior to dosing and, if urine was not present in the animal's cage at the end of the final collection interval, the final urine sample was collected by catheter. […]

[2] = Stability of tiopronin in Beagle dog plasma supernatant (pre-crashed plasma); assay type: in vitro ADME
Experimental: (§3) Stability Testing: Finally, short term and long term stability of tiopronin in beagle dog plasma, pre-crashed plasma (plasma supernatant), and urine were assessed using two tiopronin concentrations (50 ng/mL or 500 ng/mL) under each of the following two conditions: (1) storage on the bench top for 4 hours and (2) frozen at −80° C. for up to one month. Samples were considered stable if their concentrations were within ±20% of nominal. These samples met acceptable criteria for stability and results are presented below, in Tables 5, 6, and 7, showing the % tiopronin remaining in Beagle dog plasma (Table 5), plasma supernatant (Table 6), and urine (Table 7).
as §3, with “12, 13,” for “5, 6,”, “14,” for “7,”, “12),” for “5),”, “13),” for “6),”, “14).” for “7).”

[3] = Total and free plasma tiopronin and urinary tiopronin recovery in Beagle dogs after intraduodenal administration (Example 5); assay type: in vivo
Experimental: as §1, with “intraduodenal” for “oral”, “tiopronin,” for “tiopronin, according to various dose regimens,”, “small intestine administration,” for “different regimens, simulating modified release,”, “dose;” for “or multiple doses divided over a 12-hour period;”
Tiopronin formulations were administered to provide 30 mg/kg per dog as one single intraduodenal dose. Following administration, blood and urine samples were collected at the time points, or over the time intervals, indicated below.
Preparation of Dosing Formulations: Capsules were prepared and filled on the day of dosing, as follows. Tiopronin was dry mixed with avicel and mannitol to make a 40:30:30 mixture of tiopronin to avicel to mannitol, respectively. The dry mixes were custom filled with the appropriate amount of powder to deliver the specified doses to each dog based, on their respective body weights.
as §2, with “sixteen” for “six”, “eight” for “ten”
Intraduodenal (ID) administration: Animals were anesthetized by a slow IV infusion of Propofol (6-10 mg/kg) or with an intramuscular injection of a cocktail containing ketamine (approximately 10-20 mg/kg), diazepam (3 mg/kg), and acepromazine (0.05 mg/kg) given IM about 5-10 minutes before intubation. Once animals were confirmed adequately anesthetized they were intubated and maintained using isoflurane (approximately 1-5% in oxygen 1 to 4 L/min) as necessary until dosing is complete. Formulations were administered into the proximal duodenum via endoscopic guidance to verify the dosing site. The endoscope first was maneuvered into the pyloric sphincter with camera visualization of the proximal duodenum. Once there was confirmation that the endoscope was placed between the pylorus and proximal duodenum, the test article was delivered to the proximal duodenum followed by a 5 mL flush. Upon completion of the dosing, the animals were taken off the isoflurane and allowed to recover from anesthesia. Time points began upon completion of the entire dose procedure. Following each blood sampling time point, 15 mL of water was given to each dog via syringe. […]

[4] = Stability of tiopronin in Beagle dog urine; assay type: in vitro ADME
Description: (§4) Samples were considered stable if their concentrations were within ±20% of nominal. These samples met acceptable criteria for stability and results are presented below, in Tables 5, 6, and 7, showing the % tiopronin remaining in Beagle dog plasma (Table 5), plasma supernatant (Table 6), and urine (Table 7).
as §4, with “12, 13,” for “5, 6,”, “14,” for “7,”, “12),” for “5),”, “13),” for “6),”, “14).” for “7).”

cystinuria patients = details: cited from earlier work
[5] = Stability of tiopronin in Beagle dog plasma; assay type: in vitro ADME
Experimental: as §3
as §3, with “12, 13,” for “5, 6,”, “14,” for “7,”, “12),” for “5),”, “13),” for “6),”, “14).” for “7).”

[6] = cited from earlier work
[7] = cited from earlier work; remark: listed apart in the source
[8] = Leg 1 (Q12H): PO single 30 mg/kg dose
[9] = Leg 2 (Q6H): PO two 15 mg/kg doses at 0 and 6 h
[10] = Leg 3 (Q3H): PO four 7.5 mg/kg doses at 0, 3, 6, 9 h
[11] = Leg 4: PO six 5 mg/kg doses at 0, 2, 4, 6, 8, 10 h
[12] = 50 ng/mL (low), bench top (RT) for 4 hours
[13] = 50 ng/mL (low), −80° C. freezer for 1 week
[14] = 500 ng/mL (high), bench top (RT) for 4 hours
[15] = 500 ng/mL (high), −80° C. freezer for 1 week
[16] = intraduodenal single 30 mg/kg dose, average, n=3 dogs

% of the dose (unchanged drug) found in urine [1, 8]: 19.9±8.51% | maximum plasma concentrations of free tiopronin [1, 8]: 11063 ± 3598 ng/mL | maximum plasma concentrations of total tiopronin [1, 8]: 27900 ± 8122 ng/mL | maximum plasma concentrations of total tiopronin ([1]; Leg 2 (Q6H): PO 30 mg/kg as two 15 mg/kg doses at 0 and 6 h): 23833 ± 5829 ng/mL | % of the dose (unchanged drug) found in urine [1, 9]: 37.5±14.5% | maximum plasma concentrations of free tiopronin [1, 9]: 8177 ± 2237 ng/mL | maximum plasma concentrations of total tiopronin ([1]; Leg 3 (Q3H): PO 30 mg/kg as four 7.5 mg/kg doses at 0, 3, 6, 9 h): 10437 ± 1201 ng/mL | % of the dose (unchanged drug) found in urine [1, 10]: 50.6±14.0% | maximum plasma concentrations of free tiopronin [1, 10]: 3143 ± 624 ng/mL | maximum plasma concentrations of total tiopronin ([1]; Leg 4: PO 30 mg/kg as six 5 mg/kg doses at 0, 2, 4, 6, 8, 10 h): 10297 ± 2199 ng/mL | time of maximum plasma concentrations of free tiopronin [1, 11]: 3 hours post dosing | % of the dose (unchanged drug) found in urine [1, 11]: 32.7±5.90% | maximum plasma concentrations of free tiopronin [1, 11]: 2323 ± 589 ng/mL | free (unbound) tiopronin in plasma over time ([1]; Legs 3 and 4 (Q3H and Q2H)): maintained | urinary recovery of tiopronin, comparison of four dosing schedules ([1]; Q3H vs Q12H, Q6H, Q2H, FIG. 13): best tiopronin recovery in urine | % Tiopronin Remaining in Beagle Dog Plasma Supernatant [2, 12]: 113% | % Tiopronin Remaining in Beagle Dog Plasma Supernatant [2, 13]: 118% | % Tiopronin Remaining in Beagle Dog Plasma Supernatant ([2]; 50 ng/mL (low), −80° C. freezer for 2 week): 105% | % Tiopronin Remaining in Beagle Dog Plasma Supernatant ([2]; 50 ng/mL (low), −80° C. freezer for 4 week): 113% | % Tiopronin Remaining in Beagle Dog Plasma Supernatant [2, 14]: 105% | % Tiopronin Remaining in Beagle Dog Plasma Supernatant [2, 15]: 112% | % Tiopronin Remaining in Beagle Dog Plasma Supernatant ([2]; 500 ng/mL (high), −80° C. freezer for 2 week): 105% | % Tiopronin Remaining in Beagle Dog Plasma Supernatant ([2]; 500 ng/mL (high), −80° C. freezer for 4 week): 116% | % of the dose (unchanged drug) found in urine ([3]; ID single 30 mg/kg dose, average, n=3 dogs): 30.5±19.9% | maximum plasma concentrations of free tiopronin [3, 16]: 1643 ± 105 ng/mL | maximum plasma concentrations of total tiopronin [3, 16]: 8640 ± 5522 ng/mL | urinary recovery of tiopronin, small intestine vs oral administration ([3]; single 30 mg/kg dose, FIG. 16): better tiopronin recovery in urine | % Tiopronin Remaining in Beagle Dog Urine ([4]; High (2500 ng/mL), bench top (RT) for 4 hours): 84.9% | % Tiopronin Remaining in Beagle Dog Urine ([4]; High (2500 ng/mL), −80° C. freezer for 1 week): 107% | % Tiopronin Remaining in Beagle Dog Urine ([4]; High (2500 ng/mL), −80° C. freezer for 2 week): 90.9% | % Tiopronin Remaining in Beagle Dog Urine ([4]; High (2500 ng/mL), −80° C. freezer for 4 week): 96.6% | % Tiopronin Remaining in Beagle Dog Urine ([4]; Low (250 ng/mL), bench top (RT) for 4 hours): 113% | % Tiopronin Remaining in Beagle Dog Urine ([4]; Low (250 ng/mL), −80° C. freezer for 1 week): 106% | % Tiopronin Remaining in Beagle Dog Urine ([4]; Low (250 ng/mL), −80° C. freezer for 2 week): 119% | % Tiopronin Remaining in Beagle Dog Urine ([4]; Low (250 ng/mL), −80° C. freezer for 4 week): 112% | % Tiopronin Remaining in Beagle Dog Plasma [5, 12]: 109% | % Tiopronin Remaining in Beagle Dog Plasma [5, 13]: 110% | % Tiopronin Remaining in Beagle Dog Plasma ([5]; 50 ng/mL (low), −80° C. freezer for 2 weeks): 112% | % Tiopronin Remaining in Beagle Dog Plasma ([5]; 50 ng/mL (low), −80° C. freezer for 4 weeks): 95.6% | % Tiopronin Remaining in Beagle Dog Plasma [5, 14]: 87.0% | % Tiopronin Remaining in Beagle Dog Plasma [5, 15]: 95.4% | % Tiopronin Remaining in Beagle Dog Plasma ([5]; 500 ng/mL (high), −80° C. freezer for 2 weeks): 92.8% | % Tiopronin Remaining in Beagle Dog Plasma ([5]; 500 ng/mL (high), −80° C. freezer for 4 weeks): 90.4%
Structure (SMILES): CC(S)C(=O)NCC(=O)O (stereo not drawn) [tiopronin, alpha-mercaptopropionylglycine]
free (unbound) tiopronin in plasma over time ([1]; Legs 1 and 2 (Q12H and Q6H)): disappear from the plasma after a short period of time | cases/patients in which the drug is discontinued (cystinuria patients; due to adverse reactions, need for frequent dosing, poor efficacy (Pak et al., 1986)): about 30% | cystinuria patients in whom medication fails (continue forming stones) (cystinuria patients; human, in vivo): 85%

Structure (SMILES): CC(C)(S)[C@@H](N)C(=O)O [D-penicillamine]
patients with severe side effects limiting use / who cannot tolerate the drug ([6]; human, in vivo): 50-70% | bioavailability ([6]; patients with malabsorption states, presence of antacids, or after a large meal): dramatically decreases | solubility of di-sulfide complex relative to cystine [7]: 50 times
